Source: patent publication US7960130B2, “Method for activation of transient receptor potential cation channel, subfamily A, member 1 using acetaldehyde” (Korea University Industry and Academy Cooperation Foundation, priority 2008, dated 2011)

Key:
[1] = tested on: ICR mice; assay: Acute hindpaw licking/flicking behavioral analysis; details: 10 min
Method: This analysis was performed in accordance with protocols approved by the University Committee on Laboratory Animals. Mice were acclimated for 1 h to the test environment prior to experiments. Drugs dissolved in vehicle (PBS containing 0.5% Tween 80) were injected into mice right hindpaws intradermally.

[2] = tested on: TRPA1; assay: Calcium imaging of TRP transfected cell lines treated with acetaldehyde (TRPA1); format: cell-based; details: 1 mM acetaldehyde
Excerpt: (§1) HEK293T cell line (ATCC CRL-11268) was transiently transfected with plasmid DNA containing polynucleotide encoding hTRPA1 (SEQ. ID. NO: 1), rTRPV2 (SEQ. ID. NO: 2), rTRPV1 (SEQ. ID. NO: 3), mTRPV4 (SEQ. ID. NO: 4), mTRPA1 (SEQ. ID. NO: 5), hTRPV3 (SEQ. ID. NO: 6) or mTRPM8 (SEQ. ID. NO: 7).
(§2) Particularly, the HEK293T cell line was transiently transfected with individual TRP channel plasmid (pcDNA3.1 containing polynucleotide encoding hTRPA1, rTRPV2, rTRPV1 or mTRPV4; pcDNA5/FRT containing polynucleotide encoding mTRPA1, hTRPV3 or mTRPM8) 3 μg per 35-mm dish and 600 ng/well of pcDNA3 (Invitrogen Corp., USA; containing green fluorescent protein (GFP) cDNA) using Fugene6 (Roche Diagnostics, USA) according to manufacturer's instruction. The transformed cells were cultured in DMEM/F12 containing 10% FBS and 1% penicillin/streptomycin in a CO2 incubator for 24 hours. The cells were replated onto poly-L-lysine-coated glass coverslips, followed by further culture for 10-24 hours.
(§3) Particularly, the transfected cell line of Example <4-1> was loaded with Fluo-3AM (5 μM; Sigma Aldrich, USA) in the bath solution (140 mM NaCl, 5 mM KCl, 2 mM CaCl2, 1 mM MgCl2, 10 mM HEPES; adjusted to pH 7.4 with NaOH) containing 0.02% pluronic acid (Invitrogen, USA). […]

[3] = target: T1, TRPM8 (Mus musculus, UniProt Q8R4D5); assay: Calcium imaging of TRP transfected cell lines treated with acetaldehyde (TRPM8); format: cell-based; details: 1 mM acetaldehyde
T1 construct: expressed in transfected cells; host or cells: HEK293T (ATCC CRL-11268), pcDNA5/FRT
T1 sequence (Q8R4D5 whole entry): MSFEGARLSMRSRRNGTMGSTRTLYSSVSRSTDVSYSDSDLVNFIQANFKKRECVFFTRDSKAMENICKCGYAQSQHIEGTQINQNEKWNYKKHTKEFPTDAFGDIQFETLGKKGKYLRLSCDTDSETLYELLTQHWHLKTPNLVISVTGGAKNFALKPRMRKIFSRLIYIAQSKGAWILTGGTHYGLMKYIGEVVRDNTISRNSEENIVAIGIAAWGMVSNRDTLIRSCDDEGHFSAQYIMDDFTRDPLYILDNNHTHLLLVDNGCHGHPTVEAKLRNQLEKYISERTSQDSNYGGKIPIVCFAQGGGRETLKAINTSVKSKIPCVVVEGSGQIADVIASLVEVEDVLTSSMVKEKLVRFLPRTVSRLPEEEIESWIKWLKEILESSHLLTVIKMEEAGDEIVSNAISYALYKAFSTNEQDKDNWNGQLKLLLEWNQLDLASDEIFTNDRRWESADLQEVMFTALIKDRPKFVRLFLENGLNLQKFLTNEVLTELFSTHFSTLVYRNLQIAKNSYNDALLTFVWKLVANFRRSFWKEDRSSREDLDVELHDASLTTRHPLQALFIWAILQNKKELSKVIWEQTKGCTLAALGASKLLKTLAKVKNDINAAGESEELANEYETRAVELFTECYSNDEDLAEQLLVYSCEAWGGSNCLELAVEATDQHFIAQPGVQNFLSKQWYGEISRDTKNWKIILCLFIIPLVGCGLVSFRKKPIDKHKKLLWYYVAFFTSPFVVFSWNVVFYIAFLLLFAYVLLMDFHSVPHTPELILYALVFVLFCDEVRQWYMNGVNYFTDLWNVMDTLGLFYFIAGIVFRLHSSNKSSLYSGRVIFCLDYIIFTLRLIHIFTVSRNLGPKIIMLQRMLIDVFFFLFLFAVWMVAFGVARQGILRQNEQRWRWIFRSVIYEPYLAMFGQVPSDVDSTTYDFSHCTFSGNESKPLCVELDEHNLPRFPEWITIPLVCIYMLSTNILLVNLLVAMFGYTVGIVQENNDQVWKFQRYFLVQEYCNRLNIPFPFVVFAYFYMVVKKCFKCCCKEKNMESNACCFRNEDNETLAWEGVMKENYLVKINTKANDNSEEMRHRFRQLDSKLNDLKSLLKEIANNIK
Excerpt: as §1, §2, §3

[4] = target: T2, TRPV4 (Mus musculus, UniProt Q9EPK8); assay: Calcium imaging of TRP transfected cell lines treated with acetaldehyde (TRPV4); format: cell-based; details: 1 mM acetaldehyde
T2 construct: expressed in transfected cells; host or cells: HEK293T (ATCC CRL-11268), pcDNA3.1
T2 sequence (Q9EPK8 whole entry): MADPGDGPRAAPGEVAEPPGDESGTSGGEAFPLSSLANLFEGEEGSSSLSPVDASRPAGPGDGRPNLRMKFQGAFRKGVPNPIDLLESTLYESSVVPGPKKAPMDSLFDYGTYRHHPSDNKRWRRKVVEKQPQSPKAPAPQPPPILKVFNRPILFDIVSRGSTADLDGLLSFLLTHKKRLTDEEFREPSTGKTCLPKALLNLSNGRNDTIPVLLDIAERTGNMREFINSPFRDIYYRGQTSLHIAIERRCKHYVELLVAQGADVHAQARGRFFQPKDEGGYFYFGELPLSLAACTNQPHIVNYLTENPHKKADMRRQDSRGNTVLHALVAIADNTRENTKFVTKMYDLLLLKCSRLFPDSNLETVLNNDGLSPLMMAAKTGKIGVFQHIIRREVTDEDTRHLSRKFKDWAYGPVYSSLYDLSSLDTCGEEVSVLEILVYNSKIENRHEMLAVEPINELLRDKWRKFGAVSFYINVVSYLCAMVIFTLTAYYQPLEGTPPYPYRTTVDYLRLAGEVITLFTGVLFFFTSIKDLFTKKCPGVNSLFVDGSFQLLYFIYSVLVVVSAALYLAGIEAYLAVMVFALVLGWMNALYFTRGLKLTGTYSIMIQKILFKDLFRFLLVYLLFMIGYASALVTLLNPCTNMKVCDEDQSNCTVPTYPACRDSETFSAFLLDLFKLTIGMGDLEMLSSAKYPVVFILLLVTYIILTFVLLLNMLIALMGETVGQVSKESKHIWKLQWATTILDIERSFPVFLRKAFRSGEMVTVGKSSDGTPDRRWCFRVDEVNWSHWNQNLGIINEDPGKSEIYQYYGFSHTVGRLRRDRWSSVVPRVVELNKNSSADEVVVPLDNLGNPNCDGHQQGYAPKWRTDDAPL
Excerpt: as §1, §2, §3

[5] = target: T3, TRPV3 (Homo sapiens, UniProt Q8NET8); assay: Calcium imaging of TRP transfected cell lines treated with acetaldehyde (TRPV3); format: cell-based; details: 1 mM acetaldehyde
T3 construct: expressed in transfected cells; host or cells: HEK293T (ATCC CRL-11268), pcDNA5/FRT
T3 sequence (Q8NET8 1-790): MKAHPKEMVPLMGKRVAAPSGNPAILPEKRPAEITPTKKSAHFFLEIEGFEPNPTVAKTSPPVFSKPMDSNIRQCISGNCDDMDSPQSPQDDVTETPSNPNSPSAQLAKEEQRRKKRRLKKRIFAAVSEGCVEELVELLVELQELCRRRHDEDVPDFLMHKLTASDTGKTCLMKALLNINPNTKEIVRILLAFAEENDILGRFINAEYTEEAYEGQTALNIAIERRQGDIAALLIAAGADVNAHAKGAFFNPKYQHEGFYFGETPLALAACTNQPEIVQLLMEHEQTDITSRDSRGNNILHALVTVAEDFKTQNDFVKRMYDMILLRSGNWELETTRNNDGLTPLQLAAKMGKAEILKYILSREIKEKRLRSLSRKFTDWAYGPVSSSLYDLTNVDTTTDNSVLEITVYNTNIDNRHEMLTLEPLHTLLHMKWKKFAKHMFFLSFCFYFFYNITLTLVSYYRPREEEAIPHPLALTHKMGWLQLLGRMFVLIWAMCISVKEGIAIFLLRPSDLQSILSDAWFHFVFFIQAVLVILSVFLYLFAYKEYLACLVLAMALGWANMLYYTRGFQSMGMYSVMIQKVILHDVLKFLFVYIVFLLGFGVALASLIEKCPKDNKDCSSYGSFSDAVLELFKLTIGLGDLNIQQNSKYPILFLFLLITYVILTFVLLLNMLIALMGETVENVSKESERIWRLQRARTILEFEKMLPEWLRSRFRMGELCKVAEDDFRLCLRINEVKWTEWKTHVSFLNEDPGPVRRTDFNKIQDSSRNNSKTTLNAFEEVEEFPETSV
Excerpt: as §1, §2, §3

[6] = tested on: trigeminal neurons; assay: Fluo-3 calcium imaging of cultured mouse trigeminal neurons
Method: The trigeminal neurons prepared thereby were then plated onto poly-L-lysine-coated coverslips in DMEM/F12 containing 10% FBS, 1% penicillin/streptomycin and 5 ng/Ml of 2.5S NGF (Invitrogen, USA), nerve growth factor (Invitrogen), followed by culture in a CO2 incubator for 48-72 hours.
Calcium imaging was performed with a confocal microscope (LSM5 Pascal, Carl Zeiss, Germany), and time-lapse images (488 nm excitation/514 nm emission) were collected every 3 seconds using Carl Zeiss ratio tool software (Carl Zeiss, Germany).

CC=O [acetaldehyde]
dose dependence of acetaldehyde-induced nociceptive behaviors ([1]; 1 mM, 10 mM, 100 mM acetaldehyde intradermal): increased in a dose-dependent manner
acute hindpaw licking/flicking behavior elicited ([1]; intradermal into hindpaw, 10 μl, 100 mM acetaldehyde or 10 mM cinnamaldehyde, n=5): elicited acute licking or flicking behavior
activation of TRPA1 by acetaldehyde [2]: only TRPA1 was activated
activation of TRPM8 by acetaldehyde [3]: only TRPA1 was activated
activation of TRPV4 by acetaldehyde [4]: only TRPA1 was activated
activation of TRPV3 by acetaldehyde [5]: only TRPA1 was activated
acetaldehyde response of capsaicin-cinnamaldehyde-positive neurons ([6]; 1 mM acetaldehyde, n=19): did response
acetaldehyde response of menthol-positive neurons ([6]; 1 mM acetaldehyde, n=36, considered to express TRPM8): did not show response
acetaldehyde response of capsaicin-positive/cinnamaldehyde-negative neurons ([6]; 1 mM acetaldehyde, n=102, considered to express TRPV1): did not show response
EC50 ([6]; Mus musculus, Neuron, read-out: EC50 of acetaldehyde alone (Kd of dose-response curve) in trigeminal neurons): 740 µM
maximum efficacy heightened with PGE2 versus acetaldehyde alone ([6]; acetaldehyde + 1 μM PGE2): 1.2 fold
